Results taken from patent publication US20230130831A1, “METHODS FOR DETECTING AND TREATING JOINT DISEASE” (Washington University, priority 2021, published 2023).
Where a SMILES comes first, the peptide text is derived from it. Bridges are numbered along the chain shown (N, C = ends). [ ]: non-standard residue; d: D form. The star is where a group is joined. X1 = CC1(C)C(/C=C/C=C/C=C/C=C2/N(CCC(=O)*)c3ccc4ccccc4c3C2(C)C)=[N+](CCC(=O)[O-])c2ccc3ccccc3c21

Legend:
[1] = test system: C57BL/6 mice with induced arthritis (K/BxN serum transfer); test: Serum transfer arthritis: clinical paw scores and ankle thickness after treatment; type: in vivo, mouse
Method: To establish serum transfer arthritis (STA), male 6-8 weeks old C57BL/6J mice were injected intraperitoneally with 150-175 μL of serum derived from F1 mice (8-9 weeks old). Day 0 denoted induction of serum transfer/disease. Clinical manifestation of arthritis in each paw was assessed daily on a scale of 0-3 with 0=no swelling or erythema, 1=slight swelling or erythema, 2=moderate erythema and swelling in multiple digits or entire paw, and 3=pronounced erythema and swelling of an entire paw, with a maximum score of 12 per mouse. The ankle thickness of two hind paws was measured using calipers. Animals were monitored for distress during arthritis induction, including their ability to move around the cage and access food/water. Experiments were blinded, where the technician responsible for clinical assessment of paw score and ankle measurements was blinded to treatment groups. […] Clinical paw scores and ankle measurements were obtained daily. […] Mice received intraperitoneal DEX (10 mg/kg/dose) daily over 6 days. Clinical paw scores and ankle measurements were obtained daily. […] C57BL/6 mice with induced arthritis (K/Bxn serum transfer) were imaged with 6 nmol intravenous LS301 at day 4 post-disease induction. […] Individual limbs of the mice were scored for paw edema and measured for ankle thickness by calipers.

[2] = test system: K/BxN (F1) mice with spontaneous arthritis; test: Whole-body near-infrared fluorescence imaging in K/BxN spontaneous arthritis mice
Method: The K/BxN mice with spontaneous arthritis (F1) were maintained in the laboratory. To establish serum transfer arthritis (STA), male 6-8 weeks old C57BL/6J mice were injected intraperitoneally with 150-175 μL of serum derived from F1 mice (8-9 weeks old). Day 0 denoted induction of serum transfer/disease. Clinical manifestation of arthritis in each paw was assessed daily on a scale of 0-3 with 0=no swelling or erythema, 1=slight swelling or erythema, 2=moderate erythema and swelling in multiple digits or entire paw, and 3=pronounced erythema and swelling of an entire paw, with a maximum score of 12 per mouse. The ankle thickness of two hind paws was measured using calipers. Animals were monitored for distress during arthritis induction, including their ability to move around the cage and access food/water.
In the K/BxN (F1) mice with spontaneous arthritis, inflammation occurs progressively in the paws, ankle, and knee joints leading to measurable local erythema and swelling. F1 mice with severe arthritis (9-10 weeks old) were injected intravenously with LS301 and imaged 18 h post-injection for near-infrared fluorescence using the Pearl Small Animal Imaging System.
Arthritic or control (non-diseased) mice were injected intravenously with 6 nmol LS301. […] Images shown represented at least two independent experiments and were taken at 18 h post-injection with mice in dorsal orientation.
Mice were injected intravenously with 6 nmol LS301. […] Images shown were taken at 18 h post-injection with mice in dorsal orientation. (A) Early stage RA (3-4 week old K/Bxn mice). (B) Intermediate stage RA ([…] K/Bxn mice). (C) Late-stage RA (9-10 week old K/Bxn mice). (D) Normal (control) C57BL/6J mice. (E) K/Bxn mice (3-4 weeks old) were injected with cypate dye (control) instead of LS301.
K/BxN mice (9-10 wk. old) were injected intravenously with 6 nmol LS301.

[3] = test system: Raw 264.7 macrophage cells; test: In-vitro anti-inflammatory effect: LPS-induced cytokines by cytokine bead array; type: cell-based; conditions: combined with near-infrared (780 nm) laser irradiation
Method: MTX alone and controls. Raw 264.7 macrophage cells were treated with methotrexate (MTX), LS301-MTX, LS301 alone, or LS301 combined with near-infrared (780 nm) laser irradiation. Levels of inflammation-associated (LPS-induced) cytokines, including IL-6 and IL-10, were measured by cytokine bead array.

[4] = test system: C57BL/6J mice with serum transfer arthritis; conditions: mouse, in vivo
Method: Animals were shaved. Excess hair was removed using commercially available hair removal cream. Mice were anesthetized with isoflurane for injection and imaging procedures. LS301 stock (or LS301-methotrexate or LS301-methylprednisolone derivative stock) in dimethyl sulfoxide solution was diluted in phosphate-buffered saline to a final concentration of 60 μM and injected via tail vein into mice. In-vivo near-infrared fluorescence using 785 nm excitation and 820 nm emission filters was assessed pre-injection, post-injection, and/or at indicated time points post-injection with a Pearl Small Animal Imaging System (LICOR Biotechnology, Lincoln, Nebr.). Regions of interest (ROIs) for fluorescence quantitation were drawn and analyzed using the Pearl Small Animal Imaging System software.
C57BL/6J mice with serum arthritis (days 5-6 post serum transfer) (left) or control C57BL/6J mice (right) were injected intravenously with 6 nmol LS301. […] Near-infrared fluorescence images were taken on the Pearl animal imaging system with λ=820 nm. […] ROIs were drawn around each organ/limb of interest and quantitated using the Pearl animal imaging system software.
C57BL/6 mice with induced arthritis (K/Bxn serum transfer, days 5-6 post serum transfer) were injected subcutaneously (flank) with 6 nmol LS301. […] Near-infrared fluorescence images were taken on Pearl Imaging System with λ=800 nm.

[5] = target: pANXA2 (Homo sapiens, UniProt P07355); conditions: previously found; cited from earlier work
pANXA2, sequence (P07355 whole entry): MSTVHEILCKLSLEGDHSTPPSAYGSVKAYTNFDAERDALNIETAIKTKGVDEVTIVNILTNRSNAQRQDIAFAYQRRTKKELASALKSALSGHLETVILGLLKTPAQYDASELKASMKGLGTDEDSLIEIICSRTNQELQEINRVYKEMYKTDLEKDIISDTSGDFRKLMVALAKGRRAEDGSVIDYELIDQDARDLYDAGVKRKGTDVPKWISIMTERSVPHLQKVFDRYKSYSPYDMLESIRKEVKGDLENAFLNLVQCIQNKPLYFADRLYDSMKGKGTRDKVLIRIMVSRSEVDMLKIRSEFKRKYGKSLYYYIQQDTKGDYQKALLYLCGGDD

CN(Cc1cnc2nc(N)nc(N)c2n1)c1ccc(C(=O)N[C@@H](CCC(=O)O)C(=O)O)cc1 [methotrexate, reference compound]
clinical scores ([1]; three doses i.p. 2 mg/kg/dose over seven days, day 23 post-treatment initiation): clinical scores of mice had significantly decreased

CC1(C)C(/C=C/C=C/C=C/C=C2/N(CCC(=O)N[C@@H]3CSSC[C@@H](C(=O)N[C@@H](CCCCN)C(=O)O)NC(=O)[C@@H]4CCCN4C(=O)[C@H](CO)NC(=O)[C@H](CC(=O)O)NC(=O)[C@H](CCCNC(=N)N)NC(=O)CNC3=O)c3ccc4ccccc4c3C2(C)C)=[N+](CCC(=O)[O-])c2ccc3ccccc3c21 [LS301, cypate-cyclic (DCys-Gly-Arg-Asp-Ser-Pro-Cys)-Lys-OH] (X1-[dC]GRDSPCK-OH; disulfide 1-7)
clearance from the body ([2]; mouse, in vivo, iv): 2.5 days
time point of contrast post-injection ([2]; mouse, in vivo, iv): ~18 h
inflammatory state of macrophages (LPS-induced cytokines incl. IL-6, IL-10) [3]: suppress the inflammatory state of macrophages
effect on disease progression ([1]; imaging dose (6 nmol), LS301 alone): did not significantly affect disease progression
kidney signal, arthritic mice vs controls [4]: possible nonsignificant trend toward increased kidney signal in arthritic mice when compared to controls
affinity for pANXA2 [5]: high affinity

CC1(C)C(/C=C/C=C/C=C/C=C2/N(CCC(=O)O)c3ccc4ccccc4c3C2(C)C)=[N+](CCC(=O)[O-])c2ccc3ccccc3c21 [cypate, reference compound]
accumulation in extremities / regions of arthritic joint disease ([2]; K/BxN F1 arthritic mice, i.v., 18 h): No accumulation was found in extremities
